Earlier results in patent US20030055013A1, “HCV combination therapy” (SCHERING CORPORATION, priority 2001, published 2003).

Columns and labels:
[1] = per 1 mg (Goodman & Gilman)
HIV patients = settings: higher doses, PO, Phase I/II clinical trials (PharmaProjects)
[2] = monotherapy, patients with chronic hepatitis C, prior studies
[3] = tested on: chronic childhood cholestasis; settings: 20-25 IU/kg/day (Sokool et al.)
[4] = stored between 2° and 8° C. and used within 24 hours of reconstitution

Row | Compound | potency of 1 mg in IU of Vitamin E [1] | also measured
1 | CC(=O)Oc1c(C)c(C)c2c(c1C)CC[C@@](C)(CCC[C@H](C)CCC[C@H](C)CCCC(C)C)O2 (racemic) [dl-alpha tocopheryl acetate] | one | 
2 | CC(C)(Sc1cc(C(C)(C)C)c(O)c(C(C)(C)C)c1)Sc1cc(C(C)(C)C)c(O)c(C(C)(C)C)c1 [Panavia, 4,4′-isopropylidenedithiobis-2,6-di-t-butylphenol] |  | CD4 levels (HIV patients): stablized or slightly stabilized
3 | NC(=O)c1ncn([C@@H]2O[C@H](CO)[C@@H](O)[C@H]2O)n1 [Ribavirin, ribavirin] |  | patients with reduction in hemoglobin of greater than 4 g/dL [2]: 15.7 % of patients
4 | Cc1c(C)c2c(c(C)c1O)CC[C@@](C)(CCC[C@H](C)CCC[C@H](C)CCCC(C)C)O2 [d-alpha tocopherol] | 1.49 IU | 
5 | CC(=O)Oc1c(C)c(C)c2c(c1C)CC[C@@](C)(CCC[C@H](C)CCC[C@H](C)CCCC(C)C)O2 [d-alpha tocopheryl acetate] | 1.36 IU | 
6 | Cc1c(C)c2c(c(C)c1OC(=O)CCC(=O)O)CC[C@@](C)(CCC[C@H](C)CCC[C@H](C)CCCC(C)C)O2 [d-alpha tocopheryl succinate] | 1.21 IU | 
7 | d-alpha-tocopheryl polyethylene glycol 1000 succinate [Vitamin E-TPGS] |  | safety and efficacy in chronic childhood cholestasis [3]: safe and effective
8 | interferon alfa |  | stability of reconstituted aqueous solutions [4]: stable
